Values after ≈ are worked out from the molar mass of the structure shown.
Tests used:
Experiment in all cases: MIC, broth microdilution (NCCLS)
Format in all cases: cell-based
[1] = tested on: S. aureus GC6466 (tet(M)); conditions: Staphylococcus aureus, Mueller-Hinton II broth, 18-22 hours at 35° C.
Method in brief: (§1)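 MICs determined in cation-standard Mueller-Hinton II broth with serial drug dilutions, each strain inoculated to 10^5 CFU/ml. Incubation: 35 °C, ambient air, 18-22 h, following NCCLS broth microdilution guidance.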

[2] = tested on: S. pyogenes* GC4563 (Clinical); conditions: Streptococcus pyogenes, Mueller-Hinton II broth, 18-22 hours at 35° C.
Method in brief: as §1

[3] = tested on: S. pneumoniae* GC4465 (Clinical); conditions: Streptococcus pneumoniae, Mueller-Hinton II broth, 18-22 hours at 35° C.
Method in brief: as §1

[4] = tested on: S. aureus GC1131 (Clinical); conditions: Staphylococcus aureus, Mueller-Hinton II broth, 18-22 hours at 35° C.
Method in brief: as §1

[5] = tested on: E. faecalis GC4555 (ATCC Control); conditions: Enterococcus faecalis, Mueller-Hinton II broth, 18-22 hours at 35° C.
Method in brief: as §1

[6] = tested on: E. faecalis GC2267 (tet(L) + (M) + (S)); conditions: Enterococcus faecalis
Method in brief: as §1

[7] = tested on: H. influenzae<> GC6896 (ATCC Control); conditions: Haemophilus influenzae, Mueller-Hinton II broth, 18-22 hours at 35° C.
Method in brief: as §1

[8] = tested on: S. aureus GC1079 (tet(K)); conditions: Staphylococcus aureus, Mueller-Hinton II broth, 18-22 hours at 35° C.
Method in brief: as §1

[9] = tested on: E. faecalis GC2242 (Van-resistant); conditions: Enterococcus faecalis, Mueller-Hinton II broth, 18-22 hours at 35° C.
Method in brief: as §1

E. coli GC2270 (tet(M)) = conditions: Escherichia coli
Method in brief: as §1

[10] = tested on: M. catarrhalis* GC6907 (Clinical); conditions: Moraxella catarrhalis, Mueller-Hinton II broth, 18-22 hours at 35° C.
Method in brief: as §1

[11] = tested on: E. coli GC4560 (IMP mutant); conditions: Escherichia coli
Method in brief: as §1

[12] = tested on: E. coli GC4559 (parent GC4560); conditions: Escherichia coli, Mueller-Hinton II broth, 18-22 hours at 35° C.
Method in brief: as §1

[13] = tested on: C. albicans GC3066 ATCC (Control); conditions: Candida albicans, Mueller-Hinton II broth, 18-22 hours at 35° C.
E. coli GC1073 (tet(B)) = conditions: Escherichia coli
Method in brief: as §1

[14] = tested on: E. coli GC2203 (ATCC Control); conditions: Escherichia coli, Mueller-Hinton II broth, 18-22 hours at 35° C.
Method in brief: as §1

[15] = tested on: S. aureus GC2216 (ATCC Control); conditions: Staphylococcus aureus, Mueller-Hinton II broth, 18-22 hours at 35° C.
Method in brief: as §1

[16] = tested on: S. aureus GC4536 (Smith MP -In Vivo); conditions: Staphylococcus aureus, Mueller-Hinton II broth, 18-22 hours at 35° C.
Method in brief: as §1

[17] = tested on: S. pneumoniae* GC1894 (Clinical); conditions: Streptococcus pneumoniae, Mueller-Hinton II broth, 18-22 hours at 35° C.
Method in brief: as §1

SMILES	MIC [1]	MIC [2]	MIC [3]	MIC [4]	MIC [5]	MIC [6]	MIC [7]	MIC [8]	MIC [9]	MIC (E. coli GC2270 (tet(M)))	MIC [10]	MIC [11]	MIC [12]	MIC [13]	MIC (E. coli GC1073 (tet(B)))	MIC [14]	MIC [15]	MIC [16]	MIC [17]
CN(C)c1ccc(-c2nc3cc(N(C)C)c4c(c3o2)C(=O)C2=C(O)[C@]3(O)C(=O)C(C(N)=O)=C(O)[C@@H](N(C)C)[C@@H]3C[C@@H]2C4)cc1 [Example 8, (6aR,7aS,8S,11aS)-5,8-bis(dimethylamino)-2-[4-(dimethylamino)phenyl]-9,11a,12-trihydroxy-11,13-dioxo-6,6a,7,7a,8,11,11a,13-octahydrotetraceno[2,1-d][1,3]oxazole-10-carboxamide]	16 µg/mL (≈ 26.6 µM)	16 µg/mL (≈ 26.6 µM)	32 µg/mL (≈ 53.2 µM)	8 µg/mL (≈ 13.3 µM)	32 µg/mL (≈ 53.2 µM)	16 µg/mL (≈ 26.6 µM)	> 64 µg/mL	16 µg/mL (≈ 26.6 µM)	8 µg/mL (≈ 13.3 µM)	> 64 µg/mL	64 µg/mL (≈ 106 µM)	16 µg/mL (≈ 26.6 µM)	> 64 µg/mL	> 64 µg/mL	> 64 µg/mL	> 64 µg/mL	8 µg/mL (≈ 13.3 µM)	16 µg/mL (≈ 26.6 µM)	16 µg/mL (≈ 26.6 µM)
CN(C)c1cc2nc(-c3ccc(OCc4ccccc4)cc3)oc2c2c1C[C@H]1C[C@H]3[C@H](N(C)C)C(O)=C(C(N)=O)C(=O)[C@@]3(O)C(O)=C1C2=O [Example 11, (6aR,7aS,8S,11aS)-2-[4-(benzyloxy)phenyl]-5,8-bis(dimethylamino)-9,11a,12-trihydroxy-11,13-dioxo-6,6a,7,7a,8,11,11a,13-octahydrotetraceno[2,1-d](1,3]oxazole-10-carboxamide]	64 µg/mL (≈ 96.3 µM)	32 µg/mL (≈ 48.1 µM)	32 µg/mL (≈ 48.1 µM)	32 µg/mL (≈ 48.1 µM)	64 µg/mL (≈ 96.3 µM)	> 64 µg/mL	> 64 µg/mL	64 µg/mL (≈ 96.3 µM)	64 µg/mL (≈ 96.3 µM)	> 64 µg/mL	32 µg/mL (≈ 48.1 µM)	> 64 µg/mL	> 64 µg/mL	> 64 µg/mL	> 64 µg/mL	> 64 µg/mL	64 µg/mL (≈ 96.3 µM)	64 µg/mL (≈ 96.3 µM)	32 µg/mL (≈ 48.1 µM)
CN(C)c1cc2nc(-c3ccsc3)oc2c2c1C[C@H]1C[C@H]3[C@H](N(C)C)C(O)=C(C(N)=O)C(=O)[C@@]3(O)C(O)=C1C2=O [Example 17, (6aR,7aS,8S,11aS)-5,8-bis(dimethylamino)-9,11a,12-trihydroxy-11,13-dioxo-2-thien-3-yl-6,6a,7,7a,8,11,11a,13-octahydrotetraceno[2,1-d][1,3]oxazole-10-carboxamide]	8 µg/mL (≈ 14.2 µM)	16 µg/mL (≈ 28.3 µM)	32 µg/mL (≈ 56.7 µM)	8 µg/mL (≈ 14.2 µM)	8 µg/mL (≈ 14.2 µM)	16 µg/mL (≈ 28.3 µM)	> 64 µg/mL	8 µg/mL (≈ 14.2 µM)	8 µg/mL (≈ 14.2 µM)	> 64 µg/mL	16 µg/mL (≈ 28.3 µM)	4 µg/mL (≈ 7.08 µM)	> 64 µg/mL	> 64 µg/mL	> 64 µg/mL	> 64 µg/mL	8 µg/mL (≈ 14.2 µM)	8 µg/mL (≈ 14.2 µM)	32 µg/mL (≈ 56.7 µM)
CC(=O)OCc1ccc(-c2nc3cc(N(C)C)c4c(c3o2)C(=O)C2=C(O)[C@]3(O)C(=O)C(C(N)=O)=C(O)[C@@H](N(C)C)[C@@H]3C[C@@H]2C4)o1 [Example 21, {5-[(6aR,7aS,8S,11aS)-10-(aminocarbonyl)-5,8-bis(dimethylamino)-9,11a,12-trihydroxy-11,13-dioxo-6,6a,7,7a,8,11,11a,13-octahydrotetraceno[2,1-d][1,3]oxazol-2-yl]-2-furyl}methyl acetate]	32 µg/mL	> 64 µg/mL	> 64 µg/mL	64 µg/mL	> 64 µg/mL	64 µg/mL	> 64 µg/mL	32 µg/mL	32 µg/mL	> 64 µg/mL	> 64 µg/mL	> 64 µg/mL	> 64 µg/mL	> 64 µg/mL	> 64 µg/mL	> 64 µg/mL	32 µg/mL	64 µg/mL	> 64 µg/mL

Reference: patent US20080064667A1, “OXAZOLE DERIVATIVES OF TETRACYCLINES” (Wyeth, priority 2003, published 2008)
